# Reference: US20240287104A1, “NUCLIDE LABELLED H-TETRAZINES AND USE THEREOF FOR PET AND SPECT PRETARGETED IMAGING AND RADIONUCLIDE THERAPY” (RIGSHOSPITALET, priority 2020, published 2024)
# Assays:
# [1] = Second-order rate constants by stopped-flow spectrophotometry, TCO-PEG4 in DPBS at 37° C.; format: physicochemical; conditions: value of the Tz-scaffold: representative tetrazine with TCO-PEG4, n ≥ 4
# Procedure: A structurally diverse library of 45 Tz-derivatives was prepared (FIG. 15), covering a wide spectrum of physicochemical properties, in particular calculated TPSAs between 60-350 Å2 and different lipophilicities, with calculated log D7.4 values (c log D7.4) ranging from approximately −7.0 to 2.5 (Table 5). The Tz-scaffolds (A-L) include mono- and disubstituted methyl-, phenyl-, 2-pyrimidyl-, and 2-pyridyl-substituted Tz-derivatives with second-order rate constants for the reaction with TCO ranging from 1.4 to 230 M^−1 s^−1 in 1,4-dioxane at 25° C., and from 1,100 to 73,000 M^−1 s^−1 in buffered aqueous solution at 37° C. […] Several compounds were obtained as copper(II) complexes (for details see the Supporting Information), which was taken into account in the calculation of c log D7.4 and TPSA. The distribution coefficient at physiological pH (log D7.4) and TPSA were calculated using the software Chemicalize. Tetrazines conjugated to DOTA were calculated with chelated trivalent cations, Tzs with other chelators with bivalent cations. Second-order rate constants for the Tz scaffolds A-L were determined by stopped-flow spectrophotometry (n≥4), monitoring the reaction of representative tetrazines with unsubstituted trans-cyclooctene (TCO) at 25° C. in 1,4-dioxane, and with TCO-PEG4 (modified TCO-5ax-OH, ‘minor-TCO’) in Dulbecco's phosphate buffered saline (DBPS) at 37° C. n≥3.
# [2] = tested on: CC49-TCO pretargeted LS174T colon carcinoma xenografts; experiment: Pretargeted blocking assay with [111In]Q (Example 140); format: in vivo, BALB/c mice; conditions: for Blocking effect: unlabeled Tz i.v. 72 h after CC49-TCO and 1 h before [111In]Q, change in tumor uptake 22 h p.i., normalized to unblocked group
# Procedure: All animal studies were approved by the Danish Animal Welfare Council, ministry of Justice. Five weeks old female nude BALB/c mice (Charles River, Sulzfeld, Germany) were allowed to acclimatize for one week with access to water and chow ad libitum. Human colon cancer cell line (LS174T; obtained from ATCC) was cultured in minimum essential medium (MEM) supplemented with 10% fetal bovine serum, 1% L-Glutamine, 1% Sodium pyruvate, 1% non-essential amino acids, and 1% penicillin-streptomycin at 37° C. and 5% CO2. Cells were harvested by trypsination at a confluence of 70-90% and subcutaneous tumors were established in the left flank of the 6 weeks old animals by inoculation of ˜5×10^6 LS174T cells resuspended in sterile PBS (100 μL) and allowed to grow for 7-10 days. Tumors were measured using a caliper and the volume calculated using the formula volume=½(length×width^2).
# The assay was inspired by receptor blocking experiments and based on the pretargeted imaging approach reported by Rossin et al. An ^111In-labeled Tz [^111In]Q was used in pair with TCO-modified CC49, a non-internalizing mAb that targets the tumor-associated glycoprotein 72 (TAG72), as a benchmark model for the in vivo ligation.
# The TCO-modification of CC49 was carried out according to Rossin et al. To study the in vivo ligation performance of Tz-derivatives 1a-45a, BALB/c mice bearing LS174T colon carcinoma xenografts were injected intravenously (i.v.) with CC49-TCO 72 h prior to i.v. injection of the unlabeled Tz, followed by administration of [^111In]Q 1 h later. The animals were euthanized after 22 h and an ex vivo biodistribution was carried out to quantify the tumor uptake of [111 In]Q (FIG. 15). The efficiency of the in vivo ligation of the unlabeled Tz can thus be correlated to a reduced uptake of [111 In]Q (FIG. 15). As a control, blocking was performed using the non-radioactive precursor of [^111In]Q, which blocked ≥99% of the [^111In]Q tumor uptake. A group of CC49-TCO pretreated mice were injected exclusively with [^111In]Q (without blocking) and the determined uptake was used as reference value (100%) to normalize the observed changes in tumor uptake in blocking experiments.
# All of these probes include H-phenyl-, pyrimidyl-phenyl-, or bis(pyridyl)-Tz-scaffolds with second-order rate constants for the reaction with TCO of >70 M 1 s 1 (1,4-dioxane, 25° C.) or of >39,000 M 1 s 1 (DPBS, 37° C.) (cf. Table 5). Next, potential correlations between the blocking effect, the c log D7.4 and the TPSA, as well as IEDDA reactivity were investigated. […] However, a distinct relationship between c log D7.4 values and the blocking effect was evidently observed when comparing Tz-derivatives with similar IEDDA reactivity (FIG. 16C, 16D). For all Tz-scaffolds a Pearson's correlation coefficient >0.78 was found. […] The blocking effect of non-radiolabeled Tz was determined as the change in tumor uptake of [111 In]Q 22 h p.i. Each Tz was administered 1 h prior to [111 In]Q and the uptake normalized to a group of animals were no blocking was performed (control). Data represent mean from n=3 mice/group. Correlation of blocking effect and c log D7.4 for Tz-derivatives with similar IEDDA reactivity (as shown in FIGS. 16C and D) where data was fitted to exponential growth equation Y=Y0 ekx (dotted line). The statistical analysis of the correlation between tumor uptake and c log D7.4 for the different groups of Tz-derivatives (shown in Table 7) was obtained by Pearson's correlation coefficient (r) which describes the goodness of fit between the blocking effect and c log D7.4. Notes: a Reaction of representative Tz with unsubstituted TCO; “Reaction of representative Tz with TCO-PEG4;” Measured for Tz-scaffold A only; n.d.=not determined.
# [3] = Second-order rate constants by stopped-flow spectrophotometry, unsubstituted TCO in 1,4-dioxane at 25° C.; format: physicochemical; conditions: value of the Tz-scaffold: representative tetrazine with unsubstituted TCO, n ≥ 4
# Procedure: Reaction kinetics of the Tz-derivatives were determined by pseudo-first order measurements in dioxane at 25.0±0.1° C. or PBS at 27.0±0.1° ° C. in a SX20 stopped flow photometer (Applied Photophysics). The pseudo first order rate constant was determined by linearization of the decay curve followed by linear fitting. The second order rate constant was calculated from the pseudo-first order rate constant.
# A structurally diverse library of 45 Tz-derivatives was prepared (FIG. 15), covering a wide spectrum of physicochemical properties, in particular calculated TPSAs between 60-350 Å2 and different lipophilicities, with calculated log D7.4 values (c log D7.4) ranging from approximately −7.0 to 2.5 (Table 5). […] The distribution coefficient at physiological pH (log D7.4) and TPSA were calculated using the software Chemicalize. Tetrazines conjugated to DOTA were calculated with chelated trivalent cations, Tzs with other chelators with bivalent cations. Second-order rate constants for the Tz scaffolds A-L were determined by stopped-flow spectrophotometry (n≥4), monitoring the reaction of representative tetrazines with unsubstituted trans-cyclooctene (TCO) at 25° C. in 1,4-dioxane, and with TCO-PEG4 (modified TCO-5ax-OH, ‘minor-TCO’) in Dulbecco's phosphate buffered saline (DBPS) at 37° C. n≥3.
# [4] = Stability in phosphate-buffered saline (PBS) by analytical HPLC; format: physicochemical; conditions: 12 h at 37° C.; for Stability in PBS (degradation): analytical HPLC
# Procedure: The in vitro stability of UB108 and UB137 was assessed by analytical HPLC in Phosphate-buffered saline (PBS), Example 13 for UB108. […] Consequently, the organotin precursors were synthesized with an unoptimized synthetic strategy (FIG. 6, Examples 101 and 110). Radiolabeling succeeded in a one-pot, two step sequence with a RCY (d.c.) of approx. 10% and an overall synthesis time of ca. 90 minutes including synthesis, separation and formulation steps. An activity yield of 636 MBq starting from 11 GBq fluoride-18, and RCP of 98% at EOS was observed (FIGS. 6 and 11). UB137 could be labeled with similar results (FIGS. 6 and 7). The tetrazine ligation of ^18F-UB108 with s-TCO occurred rapidly, forming ligation products after click reaction (FIG. 11). Stability evaluation was completed for the formulated compound ^18F-UB108 in PBS at room temperature. […] UB137 could be labeled with similar results.
# The shelf stability of UB-108 was assessed in phosphate-buffered saline (PBS) by analytical-HPLC. […] Consequently, the stannane precursor was synthesized in 4 steps (example 98-101 Radiolabeling succeeded in a one-pot, two-step sequence with a RCY (d.c.) of 11±3% (n=4) and an overall synthesis time of ca. 90 minutes including synthesis, separation and formulation. [^18F]-UB108 was obtained with an Am of 134±22 GBq/μmol (d.c.), a RCP of ≥99% (n=4) and an activity yield of 600-700 MBq (EOS) starting from ˜12 GBq fluoride-18. [^18F]-UB108 was stable in PBS at room temperature for minimum 4 h and rapidly reacted with TCO-PNP carbonate (23) as confirmed by radio-HPLC. Residual amounts of Cu and Sn in the final formulated solution were analyzed by ICP-MS and found to be well below the allowed limits specified in the ICH Guidelines (41-60 and 2.3-3.0 μg/L vs. 300 and 600 μg/day, respectively).
# [5] = tested on: CC49-TCO pretargeted LS174T tumor xenografts; experiment: Blocking experiments with [111In]Q (Example 126, FIG. 3); format: in vivo, nude BALB/c mice; conditions: FIG. 3, cold 19F-Tz 2 h before [111In]Q
# Procedure: In this respect, we designed two highly reactive Tzs, which allowed ^18F-labeling and respective introduction of polar groups (FIG. 4-8). UB137 and UB108 were synthesized in sufficient yields via a Pinner-like synthesis as described in Example 97 and 106 and their ability to be used in pretargeted imaging were evaluated. The results were compared with the performance of compounds UB-65 and RGV-52 (FIG. 3). Efficiency in vivo was tested in an ex vivo screening assay lately published by our group and is inspired by traditional receptor blocking studies. In short, tumour-bearing mice are injected with a validated TCO-modified pretargeting vector 72 h before a test ^19F-Tz is administered. Subsequently after 2 hours, a pretargeted established ^111In-DOTA-Tz (Q)[6] is administered to the same mouse. […] In this manner, the blocking ability of the cold ^19F-Tz can be evaluated. […]
# All animal studies were approved by the Danish Animal Welfare Council, ministry of Justice. […] Tumors were measured using a caliper and the volume calculated using the formula volume=½(length×width^2).
# These blocking experiments were made using the method described in Example 125. […] All tissues were weighted and the radioactivity measured in a gamma counter (Wizard2, Perkin Elmer) and data was corrected for decay, tissue weight and injected amount of radioactivity. […]
"Shelf stability in PBS, intact ([4]; 2 nmol/mL) [%]",Stability in PBS (degradation) [4],SMILES,"Rate constant (DPBS, 37° C.) [1]",% Tumor Uptake of [^111In]46 after blocking ([2]; tumor uptake 22 h p.i. normalized to unblocked group (100%)) [%],Blocking effect [2] [%],Blocking effect ([2]; listed as non-radioactive precursor of [^111In]Q) [%],"Rate constant (1,4-dioxane, 25° C.) [3] [M⁻¹ s⁻¹]",Blocking effect (ranking) [5]
–,–,"O=C(O)CN1CCN(CC(=O)O)CCN(CC(=O)NCCOCCOCCOCCOCCOCCOCCOCCOCCOCCOCCOCCNC(=O)CCCC(=O)Nc2ccc(-c3nnc(-c4ccccn4)nn3)nc2)CCN(CC(=O)O)CC1 [Q, reference compound]","73,000 M^−1 s^−1",1,99,≥ 99,230,–
98,did not show degradation,"O=C(O)CN(CC(=O)O)Cc1cc(F)cc(-c2nncnn2)c1 [UB-108, 1-Carboxy-N-(carboxymethyl)-N-(3-fluoro-5-(1,2,4,5-tetrazin-3-yl)benzyl)methanaminium 2,2,2-trifluoroacetate]",–,–,–,–,–,best blocking effect
–,did not show degradation,"O=C(O)CNCc1cc(F)cc(-c2nncnn2)c1 [UB-137, 1-Carboxy-N-(3-fluoro-5-(1,2,4,5-tetrazin-3-yl)benzyl)methanaminium 2,2,2-trifluoroacetate]",–,–,–,–,–,best blocking effect
